Experimental data taken from patent publication US9926281B2 (priority 2014, dated 2018).

Tests used:
rnADAMTS-5 (1-564-6H) = rnADAMTS-5 (1-564-6H) (Rattus norvegicus, UniProt Q6TY19); conditions: read-out: Rat ADAMTS-5 potency IC50
human ADAMTS-5 = human ADAMTS-5 (Homo sapiens (Human), UniProt Q9UNA0); conditions: read-out: hADAMTS-5 potency IC50
human TACE = human TACE (Homo sapiens (Human), UniProt P78536); conditions: read-out: TACE potency IC50
human MMP13 = human MMP13 (Homo sapiens (Human), UniProt P45452); conditions: read-out: hMMP-13 potency IC50
Description: Human MMP13 is preactivated by incubated the enzyme in the same buffer complemented with 1 mM freshly prepared p-Aminophenylmercuric acetate (AMPA) for 1 hour at 37° C.

Sequence of human ADAMTS-5 (Q9UNA0 262-930): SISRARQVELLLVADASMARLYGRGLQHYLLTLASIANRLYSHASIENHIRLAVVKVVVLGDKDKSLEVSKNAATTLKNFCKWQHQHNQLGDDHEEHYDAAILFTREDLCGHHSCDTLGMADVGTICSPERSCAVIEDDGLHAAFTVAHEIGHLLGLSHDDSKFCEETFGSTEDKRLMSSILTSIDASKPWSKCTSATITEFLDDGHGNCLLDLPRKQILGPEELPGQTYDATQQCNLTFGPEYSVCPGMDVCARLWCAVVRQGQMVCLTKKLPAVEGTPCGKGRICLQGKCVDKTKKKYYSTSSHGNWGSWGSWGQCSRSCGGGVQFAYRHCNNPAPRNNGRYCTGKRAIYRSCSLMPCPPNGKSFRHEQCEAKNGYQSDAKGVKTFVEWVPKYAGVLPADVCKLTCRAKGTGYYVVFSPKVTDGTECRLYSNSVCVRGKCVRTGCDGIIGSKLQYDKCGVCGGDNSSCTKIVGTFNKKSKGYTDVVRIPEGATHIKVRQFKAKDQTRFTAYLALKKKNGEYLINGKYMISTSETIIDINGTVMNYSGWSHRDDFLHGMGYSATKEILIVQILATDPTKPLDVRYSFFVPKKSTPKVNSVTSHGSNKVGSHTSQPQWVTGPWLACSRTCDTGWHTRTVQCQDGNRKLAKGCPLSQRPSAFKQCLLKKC
Sequence of human TACE (P78536 whole entry, looked up, change not shown): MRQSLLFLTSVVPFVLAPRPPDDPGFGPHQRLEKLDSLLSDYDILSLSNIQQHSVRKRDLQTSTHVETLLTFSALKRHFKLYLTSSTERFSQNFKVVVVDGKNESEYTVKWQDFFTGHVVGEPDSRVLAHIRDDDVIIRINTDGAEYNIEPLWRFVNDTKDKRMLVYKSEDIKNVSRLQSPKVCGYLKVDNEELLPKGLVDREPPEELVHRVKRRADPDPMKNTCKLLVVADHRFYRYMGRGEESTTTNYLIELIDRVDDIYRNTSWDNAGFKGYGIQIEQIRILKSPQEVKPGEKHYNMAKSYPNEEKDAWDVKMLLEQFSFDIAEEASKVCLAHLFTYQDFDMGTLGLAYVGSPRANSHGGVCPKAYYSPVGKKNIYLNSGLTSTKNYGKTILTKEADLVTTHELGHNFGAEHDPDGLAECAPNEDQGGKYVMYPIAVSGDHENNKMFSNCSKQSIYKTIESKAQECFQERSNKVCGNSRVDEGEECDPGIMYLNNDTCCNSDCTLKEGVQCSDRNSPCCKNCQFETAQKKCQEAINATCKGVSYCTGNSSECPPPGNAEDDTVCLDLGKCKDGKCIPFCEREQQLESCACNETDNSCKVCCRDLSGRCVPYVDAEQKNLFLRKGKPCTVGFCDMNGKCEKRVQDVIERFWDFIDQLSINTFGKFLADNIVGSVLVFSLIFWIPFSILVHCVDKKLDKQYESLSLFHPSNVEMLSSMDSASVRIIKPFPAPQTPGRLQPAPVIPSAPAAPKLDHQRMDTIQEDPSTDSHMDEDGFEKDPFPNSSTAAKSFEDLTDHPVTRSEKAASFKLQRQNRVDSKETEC

## CC1(CCC(=O)N2CCN(c3ccc(F)cc3)CC2)NC(=O)NC1=O (stereo not drawn) [compound 66, 5-[3-[4-(4-fluorophenyl)piperazin-1-yl]-3-oxo-propyl]-5-methyl-imidazolidine-2,4-dione]
rnADAMTS-5 (1-564-6H)
  IC50: 1370 nM
Human ADAMTS-5
  IC50: 1310 nM
Human TACE
  IC50: > 20 µM
Human MMP13
  IC50: > 20 µM

## O=C1NC(=O)C(CCC(=O)N2CCN(c3cccc(Cl)c3)CC2)(C2CCC2)N1 (stereo not drawn) [compound 70, 5-[3-[4-(3-chlorophenyl)piperazin-1-yl]-3-oxo-propyl]-5-cyclobutyl-imidazolidine-2,4-dione]
rnADAMTS-5 (1-564-6H)
  IC50: 205 nM
Human ADAMTS-5
  IC50: 253 nM
Human TACE
  IC50: > 20 µM
Human MMP13
  IC50: > 4 µM

## Cc1ccc(C2(CCC(=O)N3CCN(c4cccc(Cl)c4)CC3)NC(=O)NC2=O)cc1 (stereo not drawn) [compound 76, 5-[3-[4-(3-chlorophenyl)piperazin-1-yl]-3-oxo-propyl]-5-(p-toy)imidazolidine-2,4-dione]
rnADAMTS-5 (1-564-6H)
  IC50: 102 nM
Human ADAMTS-5
  IC50: 91 nM
Human TACE
  IC50: 1.78 µM
Human MMP13
  IC50: 2.06 µM

## COc1ccc(C2(CCC(=O)N3CCN(c4cccc(Cl)c4)CC3)NC(=O)NC2=O)cc1 (stereo not drawn) [compound 78, 5-[3-[4-(3-chlorophenyl)piperazin-1-yl]-3-oxo-propyl]-5-(4-methoxyphenyl)imidazolidine-2,4-dione]
rnADAMTS-5 (1-564-6H)
  IC50: 96 nM
Human ADAMTS-5
  IC50: 79 nM
Human TACE
  IC50: 2.66 µM
Human MMP13
  IC50: 2.1 µM

## COc1ccc(C2(CCC(=O)N3CCN(c4cc(Cl)ccc4C)CC3)NC(=O)NC2=O)cc1 (stereo not drawn) [compound 79, 5-[3-[4-(5-chloro-2-methyl-phenyl)piperazin-1-yl]-3-oxo-propyl]-5-(4-methoxyphenyl)imidazolidine-2,4-dione]
rnADAMTS-5 (1-564-6H)
  IC50: 53 nM
Human ADAMTS-5
  IC50: 53 nM
Human TACE
  IC50: 0.277 µM
Human MMP13
  IC50: > 20 µM

## CN(C)CCOc1ccc(C2(CCC(=O)N3CCN(c4cccc(Cl)c4)CC3)NC(=O)NC2=O)cc1 (stereo not drawn) [compound 80, 5-[3-[4-(3-chlorophenyl)piperazin-1-yl]-3-oxo-propyl]-5-[4-(2-dimethylaminoethyloxy)phenyl]imidazolidine-2,4-dione]
rnADAMTS-5 (1-564-6H)
  IC50: 429 nM
Human ADAMTS-5
  IC50: 257 nM
Human TACE
  IC50: > 20 µM
Human MMP13
  IC50: 3.79 µM

## CC1(CCC(=O)N2CCN(c3cncc(Cl)c3)CC2)NC(=O)NC1=O (stereo not drawn) [compound 85, 5-[3-[4-(5-chloro-3-pyridyl)piperazin-1-yl]-3-oxo-propyl]-5-methyl-imidazolidine-2,4-dione]
rnADAMTS-5 (1-564-6H)
  IC50: 1110 nM
Human ADAMTS-5
  IC50: 1270 nM
Human TACE
  IC50: > 4 µM
Human MMP13
  IC50: > 20 µM

## CC1(CCC(=O)N2CCN(c3cncc(Br)c3)CC2)NC(=O)NC1=O (stereo not drawn) [compound 86, 5-[3-[4-(5-bromo-3-pyridyl)piperazin-1-yl]-3-oxo-propyl]-5-methyl-imidazolidine-2,4-dione]
rnADAMTS-5 (1-564-6H)
  IC50: 1790 nM
Human ADAMTS-5
  IC50: 1700 nM
Human TACE
  IC50: > 4 µM
Human MMP13
  IC50: > 20 µM

## Cc1ccc(C)c(N2CCN(C(=O)CCC3(c4ccccn4)NC(=O)NC3=O)CC2)c1 (stereo not drawn) [compound 87, 5-[3-[4-(2,5-dimethylphenyl)piperazin-1-yl]-3-oxo-propyl]-5-(2-pyridyl)imidazolidine-2,4-dione]
rnADAMTS-5 (1-564-6H)
  IC50: 113 nM
Human ADAMTS-5
  IC50: 137 nM
Human TACE
  IC50: 0.12 µM
Human MMP13
  IC50: > 20 µM

## Cc1ccc(C)c(N2CCN(C(=O)CCC3(c4cccnc4)NC(=O)NC3=O)CC2)c1 (stereo not drawn) [compound 88, 5-[3-[4-(2,5-dimethylphenyl)piperazin-1-yl]-3-oxo-propyl]-5-(3-pyridyl)imidazolidine-2,4-dione]
rnADAMTS-5 (1-564-6H)
  IC50: 119 nM
Human ADAMTS-5
  IC50: 119 nM
Human TACE
  IC50: 0.211 µM
Human MMP13
  IC50: > 20 µM

## O=C1NC(=O)C(CCC(=O)N2CCN(c3ccc(F)c(F)c3)CC2)(c2cccnc2)N1 (stereo not drawn) [compound 90, 5-[3-[4-(3,4-difluorophenyl)piperazin-1-yl]-3-oxo-propyl]-5-(3-pyridyl)imidazolidine-2,4-dione]
rnADAMTS-5 (1-564-6H)
  IC50: 70 nM
Human ADAMTS-5
  IC50: 85 nM
Human TACE
  IC50: > 4 µM
Human MMP13
  IC50: 1.21 µM

## O=C1NC(=O)C(CCC(=O)N2CCN(c3ccc(F)c(Cl)c3)CC2)(c2cccnc2)N1 (stereo not drawn) [compound 91, 5-[3-[4-(3-chloro-4-fluoro-phenyl)piperazin-1-yl]-3-oxo-propyl]-5-(3-pyridyl)imidazolidine-2,4-dione]
rnADAMTS-5 (1-564-6H)
  IC50: 69 nM
Human ADAMTS-5
  IC50: 95 nM
Human TACE
  IC50: > 4 µM
Human MMP13
  IC50: 1.68 µM

## Cc1ccc(F)cc1N1CCN(C(=O)CCC2(c3cccnc3)NC(=O)NC2=O)CC1 (stereo not drawn) [compound 92, 5-[3-[4-(5-fluoro-2-methyl-phenyl)piperazin-1-yl]-3-oxo-propyl]-5-(3-pyridyl)imidazolidine-2,4-dione]
rnADAMTS-5 (1-564-6H)
  IC50: 64 nM
Human ADAMTS-5
  IC50: 63 nM
Human TACE
  IC50: 1.05 µM
Human MMP13
  IC50: > 20 µM

## Cc1cc(Cl)c(F)cc1N1CCN(C(=O)CCC2(C)NC(=O)NC2=O)CC1 (stereo not drawn) [compound 93, 5-[3-[4-(4-chloro-5-fluoro-2-methyl-phenyl)piperazin-1-yl]-3-oxo-propyl]-5-methyl-imidazolidine-2,4-dione]
rnADAMTS-5 (1-564-6H)
  IC50: > 4000 nM
Human ADAMTS-5
  IC50: > 4080 nM
Human TACE
  IC50: > 3.53 µM
Human MMP13
  IC50: > 20 µM

## Cc1cc(F)c(F)cc1N1CCN(C(=O)CCC2(C)NC(=O)NC2=O)CC1 (stereo not drawn) [compound 94, 5-[3-[4-(4,5-difluoro-2-methyl-phenyl)piperazin-1-yl]-3-oxo-propyl]-5-methyl-imidazolidine-2,4-dione]
rnADAMTS-5 (1-564-6H)
  IC50: 3020 nM
Human ADAMTS-5
  IC50: 2130 nM
Human TACE
  IC50: > 4 µM
Human MMP13
  IC50: > 20 µM

## O=C1NC(=O)C(CCC(=O)N2CCN(c3ccc(F)c(F)c3)CC2)(c2ccccn2)N1 (stereo not drawn) [compound 95, 5-[3-[4-(3,4-difluorophenyl)piperazin-1-yl]-3-oxo-propyl]-5-(2-pyridyl)imidazolidine-2,4-dione]
rnADAMTS-5 (1-564-6H)
  IC50: 40 nM
Human ADAMTS-5
  IC50: 48 nM
Human TACE
  IC50: > 4 µM
Human MMP13
  IC50: 2.2 µM

## O=C1NC(=O)C(CCC(=O)N2CCN(c3ccc(F)c(Cl)c3)CC2)(c2ccccn2)N1 (stereo not drawn) [compound 96, 5-[3-[4-(3-chloro-4-fluoro-phenyl)piperazin-1-yl]-3-oxo-propyl]-5-(2-pyridyl)imidazolidine-2,4-dione]
rnADAMTS-5 (1-564-6H)
  IC50: 57 nM
Human ADAMTS-5
  IC50: 49 nM
Human TACE
  IC50: 3.59 µM
Human MMP13
  IC50: 1.06 µM

## Cc1c(F)cccc1N1CCN(C(=O)CCC2(c3cccnc3)NC(=O)NC2=O)CC1 (stereo not drawn) [compound 97, 5-[3-[4-(3-fluoro-2-methyl-phenyl)piperazin-1-yl]-3-oxo-propyl]-5-(3-pyridyl)imidazolidine-2,4-dione]
rnADAMTS-5 (1-564-6H)
  IC50: 148 nM
Human ADAMTS-5
  IC50: 168 nM
Human TACE
  IC50: > 4 µM
Human MMP13
  IC50: > 20 µM

## Cc1c(F)cccc1N1CCN(C(=O)CCC2(c3ccccn3)NC(=O)NC2=O)CC1 (stereo not drawn) [compound 100, 5-[3-[4-(3-fluoro-2-methyl-phenyl)piperazin-1-yl]-3-oxo-propyl]-5-(2-pyridyl)imidazolidine-2,4-dione]
rnADAMTS-5 (1-564-6H)
  IC50: 163 nM
Human ADAMTS-5
  IC50: 185 nM
Human TACE
  IC50: > 4 µM
Human MMP13
  IC50: > 20 µM

## O=C1NC(=O)C(CCC(=O)N2CCN(c3cccc(F)c3)CC2)(c2ccccn2)N1 (stereo not drawn) [compound 103, 5-[3-[4-(3-fluorophenyl)piperazin-1-yl]-3-oxo-propyl]-5-(2-pyridyl)imidazolidine-2,4-dione]
rnADAMTS-5 (1-564-6H)
  IC50: 24 nM
Human ADAMTS-5
  IC50: 28 nM
Human TACE
  IC50: 4.1 µM
Human MMP13
  IC50: 2 µM

## Cc1ccc(F)cc1N1CCN(C(=O)CCC2(c3ccccn3)NC(=O)NC2=O)CC1 (stereo not drawn) [compound 104, 5-[3-[4-(5-fluoro-2-methyl-phenyl)piperazin-1-yl]-3-oxo-propyl]-5-(2-pyridyl)imidazolidine-2,4-dione]
rnADAMTS-5 (1-564-6H)
  IC50: 41 nM
Human ADAMTS-5
  IC50: 43 nM
Human TACE
  IC50: 0.461 µM
Human MMP13
  IC50: > 20 µM
